Assays:
Test in all cases: relative viability (nuclei count vs DMSO), 5 days (fraction); higher = more cells survive
[1] = compound: C1=CC2=C(C=CC(=C2)C=C3C(=O)NC(=NCC4=CC=CS4)S3)N=C1 [RO-3306] + COc1cc2c(Oc3ccc(NC(=O)C4(C(=O)Nc5ccc(F)cc5)CC4)cc3F)ccnc2cc1OCCCN1CCOCC1 [Foretinib] (partner 0.25 µM)
How it was run: (§1)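 Lung cancer cell lines in 1536-well plates were dosed by pin tool the day after seeding, either with one drug alone or with a fixed anchor-drug dose plus five library-drug doses (not always all listed) in √10 steps. After 5 days, cells were fixed and their nuclei stained in one step (final 0.05% Triton X-100, 1% formaldehyde, 1 ug/ml Hoechst), then counted on 4× images. Relative viability is the nuclei count in treated wells divided by that in vehicle wells. Values are medians of duplicate plates.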

[2] = compound: O=S(=O)(c1ccccc1)N(CC(F)(F)F)c1ccc(C(O)(C(F)(F)F)C(F)(F)F)cc1 + NC(=O)Nc1cc(-c2cccc(F)c2)sc1C(=O)N[C@H]1CCCNC1 [AZD7762] (partner 0.2 µM)
How it was run: as §1

[3] = compound: C1=CC2=C(C=CC(=C2)C=C3C(=O)NC(=NCC4=CC=CS4)S3)N=C1 [RO-3306] + Nc1ncn([C@H]2C[C@H](O)[C@@H](CO)O2)c(=O)n1 [Decitabine] (partner 2 µM)
How it was run: as §1

[4] = compound: O=S(=O)(c1ccccc1)N(CC(F)(F)F)c1ccc(C(O)(C(F)(F)F)C(F)(F)F)cc1 + C[C@@H](Oc1cc(-c2cnn(C3CCNCC3)c2)cnc1N)c1c(Cl)ccc(F)c1Cl [Crizotinib] (partner 1 µM)
How it was run: as §1

[5] = compound: O=S(=O)(c1ccccc1)N(CC(F)(F)F)c1ccc(C(O)(C(F)(F)F)C(F)(F)F)cc1 + CCNC(=O)c1noc(-c2cc(C(C)C)c(O)cc2O)c1-c1ccc(CN2CCOCC2)cc1 [Luminespib] (partner 0.01 µM)
How it was run: as §1

Row | Cell Line | relative viability ([1]; first compound 0.01 µM) | relative viability ([1]; first compound 0.03162 µM) | relative viability ([1]; first compound 0.1 µM) | relative viability ([1]; first compound 0.3162 µM) | relative viability ([1]; first compound 1 µM) | relative viability ([2]; first compound 0.8 µM) | relative viability ([2]; first compound 2.53 µM) | relative viability ([2]; first compound 8 µM) | relative viability ([3]; first compound 0.01 µM) | relative viability ([3]; first compound 0.03162 µM) | relative viability ([3]; first compound 0.1 µM) | relative viability ([3]; first compound 0.3162 µM) | relative viability ([3]; first compound 1 µM) | relative viability ([4]; first compound 0.8 µM) | relative viability ([4]; first compound 2.53 µM) | relative viability ([4]; first compound 8 µM) | relative viability ([5]; first compound 0.8 µM) | relative viability ([5]; first compound 2.53 µM) | relative viability ([5]; first compound 8 µM)
1 | HOP-62 | 1.2 | 1.07 | 1.05 | 1.05 | 1.1 | 0.649 | 0.517 | 0.598 | 0.229 | 0.239 | 0.207 | 0.222 | 0.249 | 1.04 | 0.871 | 0.913 | 0.903 | 0.907 | 0.862
2 | LC-2-ad | 0.877 | 0.804 | 0.941 | 0.967 | 0.942 | 0.89 | 0.779 | 0.702 | 0.869 | 0.776 | 0.743 | 0.785 | 0.759 | 0.478 | 0.498 | 0.443 | 0.898 | 0.892 | 0.864
3 | LCLC-97TM1 | 0.928 | 0.866 | 0.927 | 0.9 | 1.01 |  | 0.241 | 0.234 | 0.203 | 0.223 | 0.196 | 0.229 | 0.266 | 0.314 | 0.371 | 0.297 | 0.716 | 0.744 | 0.682
4 | LCLC-103H | 0.695 | 0.647 | 0.779 | 0.719 | 0.835 | 0.841 | 0.826 | 0.948 | 0.772 | 0.651 | 0.695 | 0.768 | 0.713 | 1.14 | 1.13 | 1.15 | 1.07 | 0.862 | 0.845
5 | LK-2 | 1.28 |  | 1.5 | 1.17 | 1.37 | 0.488 | 0.682 | 0.412 | 0.279 | 0.215 | 0.282 | 0.301 | 0.286 | 0.2 | 0.229 | 0.242 | 0.175 | 0.174 | 0.227
6 | LOU-NH91 | 0.879 | 0.94 | 0.951 | 0.87 | 0.976 | 0.801 | 0.8 | 0.796 | 0.829 | 0.787 | 0.796 | 0.823 | 0.79 | 0.748 | 0.775 | 0.753 | 0.404 | 0.353 | 0.285
7 | LU99A | 0.869 | 0.798 | 0.844 | 0.835 | 0.733 | 0.459 | 0.401 | 0.318 | 1.21 | 0.702 | 0.915 | 0.926 | 1 | 0.634 | 0.465 | 0.516 | 0.332 | 0.226 | 0.185
8 | LXF-289 | 0.985 | 0.956 | 0.945 | 0.996 | 0.958 | 0.981 | 0.937 | 0.974 | 0.377 | 0.36 | 0.387 | 0.333 | 0.424 | 0.793 | 0.721 | 0.689 | 0.858 | 0.559 | 0.641
9 | NCI-H23 | 0.972 | 0.728 | 0.833 | 1.08 | 0.978 | 0.22 | 0.293 | 0.246 | 0.338 |  | 0.334 | 0.341 | 0.301 | 0.471 | 0.452 | 0.513 | 0.2 | 0.206 | 0.255
10 | NCI-H322M | 1.05 | 0.815 | 0.896 | 0.962 | 1.02 | 0.542 | 0.643 | 0.583 | 0.591 | 0.675 | 0.721 | 0.717 | 0.762 | 0.981 | 0.835 | 0.743 | 1.13 | 0.946 | 1
11 | NCI-H358 | 0.541 | 0.57 | 0.623 | 0.786 | 0.493 | 0.385 | 0.369 | 0.371 | 0.204 | 0.208 | 0.216 | 0.206 | 0.182 | 0.606 | 0.515 | 0.512 | 0.195 | 0.332 | 0.352
12 | NCI-H441 | 0.911 | 0.937 | 0.944 | 1.07 | 0.937 | 1.34 | 1.2 | 0.996 | 0.216 | 0.211 | 0.253 | 0.277 | 0.244 | 0.992 | 0.869 | 0.717 | 0.317 | 0.37 | 0.372
13 | NCI-H460 | 1 | 0.894 | 1.08 | 1.08 | 1.08 | 0.571 | 0.555 | 0.625 | 0.52 | 0.44 | 0.509 | 0.645 | 0.462 | 0.824 | 1.03 | 1 | 0.034 | 0.0266 | 0.0324
14 | NCI-H596 | 0.716 | 0.797 | 0.818 | 0.872 | 0.77 | 1.04 | 0.946 | 0.933 | 0.985 | 0.805 | 0.882 | 1.02 | 0.891 | 0.921 | 0.947 | 0.926 | 1.13 | 0.69 | 0.923
15 | NCI-H647 | 1.29 | 1.12 | 1.12 | 1.27 | 1.24 | 0.483 | 0.388 | 0.535 | 0.479 | 0.336 | 0.417 | 0.429 | 0.405 | 1.52 | 1.23 | 0.906 | 0.275 | 0.19 | 0.233

— the supplement of paper PMC10307832
